Laboratory results as given in US10150762B2, “Trifluoromethyl alcohols as modulators of RORγt” (Janssen Pharmaceutica NV, priority 2014, dated 2018).
Like-named read-outs stand apart in the source and are kept apart here. Marks after values point to notes of the source that are not given here.

What was measured:
full-length human RORγt [1] = biological target: T1, full-length human RORγt (Homo sapiens (Human), UniProt P51449); type: cell-based; settings: for IC50: HEK293T cells, Conditions A, read-out: RORγt (FL) Reporter Assay A, IC50
Protocol: (§1) RORγt (full-length human) Reporter Assay:
Luminescence was measured using a BMG LUMIstar OPTIMA plate reader, after addition of 75 μL/well firefly luciferase buffer, followed by 75 μL/well Renilla luciferase buffer.

[2] = biological target: wild type human RORγt ligand binding domain (RORγt LBD) (Homo sapiens (Human), UniProt P51449); settings: read-out: ThermoFluor® Assay, Kd
Protocol: This approach is applicable to a wide variety of systems, and rigorous in theoretical interpretation through quantitation of equilibrium binding constants (KD).
The shift in the melting point described as a ΔTm is proportional to the concentration and affinity of the ligand.
RORγt ThermoFluor® Assay Construct
ThermoFluor® experiments were carried out using instruments owned by Janssen Research and Discovery, L.L.C. through its acquisition of 3-Dimensional Pharmaceuticals, Inc. 1,8-ANS (Invitrogen) was used as a fluorescent dye. Protein and compound solutions are dispensed into black 384-well polypropylene PCR microplates (Abgene) and overlayed with silicone oil (1 μL, Fluka, type DC 200) to prevent evaporation.
Fluorescence was measured by continuous illumination with UV light (Hamamatsu LC6) supplied via fiber optic and filtered through a band-pass filter (380-400 nm; >6 OD cutoff). Fluorescence emission of the entire 384-well plate was detected by measuring light intensity using a CCD camera (Sensys, Roper Scientific) filtered to detect 500±25 nm, resulting in simultaneous and independent readings of all 384 wells. Images were collected at each temperature, and the sum of the pixel intensity in a given area of the assay plate was recorded versus temperature. Reference wells contained RORγt without compounds, and the assay conditions were as follows: • 0.065 mg/mL RORγt • 60 μM 1,8-ANS • 100 mM Hepes, pH 7.0 • 10 mM NaCl • 2.5 mM GSH • 0.002% Tween-20

full-length human RORγt [3] = biological target: T1, full-length human RORγt; settings: for IC50: read-out: RORγt (FL) Reporter Assay B or C, IC50, HEK293T cells, Conditions B or C
Text: as §1
All three provide similar data and can be used interchangeably.

[4] = tested on: IL-17 production by CD4 T cells; assay: Human Th17 Assay; type: cell-based; settings: 72 h, read-out: Human Th17 Assay, IC50
Text: Human Th17 Assay The human Th17 assay tests the effect of RORγt modulatory compounds on IL-17 production by CD4 T cells under conditions which favor Th17 differentiation. Total CD4+ T cells were isolated from the peripheral blood mononuclear cells (PBMC) of healthy donors using a CD4+ T cell isolation kit II, following the manufacturer's instructions (Miltenyi Biotec). […] The final concentrations of antibodies and cytokines (R&D Systems) in differentiation medium were: 3×10^6/mL anti-CD3/CD28 beads (prepared using human T cell activation/expansion kit, Miltenyi Biotec), 10 μg/mL anti-IL4, 10 μg/mL anti-IFNγ, 10 ng/mL IL113, 10 ng/mL IL23, 50 ng/mL IL6, 3 ng/mL TGFβ and 20 U/mL IL2. Cells were cultured at 37° C. and 5% CO2 for 3 days. Supernatants were collected and the accumulated IL-17 in culture was measured by using MULTI-SPOT® Cytokine Plate following manufacture's instruction (Meso Scale Discovery). The plate was read using Sector Imager 6000, and IL-17 concentration was extrapolated from the standard curve. The IC50s were determined by GraphPad.

[5] = *** 0.67 μM compound concentration

T1 sequence (P51449 other isoform, or with tags, fused parts or gaps): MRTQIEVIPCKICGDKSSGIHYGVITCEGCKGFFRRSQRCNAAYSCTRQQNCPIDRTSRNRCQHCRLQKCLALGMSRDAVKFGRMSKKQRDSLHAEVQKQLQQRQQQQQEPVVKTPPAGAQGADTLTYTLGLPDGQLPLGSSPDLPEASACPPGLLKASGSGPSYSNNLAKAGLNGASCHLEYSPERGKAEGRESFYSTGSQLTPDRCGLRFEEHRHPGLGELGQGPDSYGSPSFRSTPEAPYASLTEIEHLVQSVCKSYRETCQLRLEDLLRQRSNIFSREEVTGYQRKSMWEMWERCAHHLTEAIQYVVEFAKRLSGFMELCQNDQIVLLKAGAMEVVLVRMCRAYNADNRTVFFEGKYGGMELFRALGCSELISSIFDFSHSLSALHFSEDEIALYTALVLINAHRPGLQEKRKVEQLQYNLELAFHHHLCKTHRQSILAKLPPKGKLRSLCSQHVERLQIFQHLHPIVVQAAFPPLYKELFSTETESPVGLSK
Sequence of wild type human RORγt ligand binding domain (RORγt LBD) (P51449 other isoform, or with tags, fused parts or gaps): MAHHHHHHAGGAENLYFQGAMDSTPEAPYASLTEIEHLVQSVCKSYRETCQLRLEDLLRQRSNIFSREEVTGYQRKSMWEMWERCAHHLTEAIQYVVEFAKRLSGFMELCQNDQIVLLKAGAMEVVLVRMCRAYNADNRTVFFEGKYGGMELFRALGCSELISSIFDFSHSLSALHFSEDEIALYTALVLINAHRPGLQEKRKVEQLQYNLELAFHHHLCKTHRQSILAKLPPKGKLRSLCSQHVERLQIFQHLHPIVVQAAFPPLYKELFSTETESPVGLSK

Row | SMILES | RORγt (FL) Reporter Assay A, % inhibition (full-length human RORγt [1]; ** 2 μM compound concentration) | IC50 (full-length human RORγt [1]) | Kd [2] | also measured
1 | C[C@H]1C[C@@H](F)CCN1C(=O)c1nc(C(=O)NCC(C)(C)O)sc1-c1ccc(C(O)(C(F)(F)F)C(F)(F)F)c(Cl)c1Cl [Example 2/1, 5-(2,3-Dichloro-4-(1,1,1,3,3,3-hexafluoro-2-hydroxypropan-2-yl)phenyl)-4-((2S,4S)-4-fluoro-2-methylpiperidine-1-carbonyl)-N-(2-hydroxy-2-methylpropyl)thiazole-2-carboxamide] | 103** % | 14 nM | 0.16 nM | 
2 | C[C@H]1CCCN1C(=O)c1nc(C(=O)NCC(C)(C)O)sc1-c1ccc(C(O)(C(F)(F)F)C(F)(F)F)cc1Cl [Example 15/10, (S)-5-(2-Chloro-4-(1,1,1,3,3,3-hexafluoro-2-hydroxypropan-2-yl)phenyl)-N-(2-hydroxy-2-methylpropyl)-4-(2-methylpyrrolidine-1-carbonyl)thiazole-2-carboxamide] |  |  | 0.26 nM | RORγt (FL) Reporter Assay B or C, % inhibition (full-length human RORγt [3]; * 3 μM compound concentration): 97* %; IC50 (full-length human RORγt [3]): 7.9 nM
3 | C[C@H]1CCCN1C(=O)c1nc(C(=O)NCC(C)(C)O)sc1-c1ccc(C(O)(C(F)(F)F)C(F)(F)F)cc1C(F)F [Example 15, (S)-5-(2-(Difluoromethyl)-4-(1,1,1,3-hexafluoro-2-hydroxypropan-2-yl)phenyl)-N-(2-hydroxy-2-methylpropyl)-4-(2-methylpyrrolidine-1-carbonyl)thiazole-2-carboxamide] |  |  |  | IC50 [4]: 47 nM
4 | O=C(NC1CS(=O)(=O)C1)c1nc(C(=O)N2CCC(F)CC2)c(-c2ccc(C(O)(C(F)(F)F)C(F)(F)F)c(Cl)c2Cl)s1 [Example 6/1, 5-(2,3-Dichloro-4-(1,1,1,3,3,3-hexafluoro-2-hydroxypropan-2-yl)phenyl)-N-(1,1-dioxidothietan-3-yl)-4-(4-fluoropiperidine-1-carbonyl)thiazole-2-carboxamide] |  |  |  | IC50 [4]: 42 nM
5 | Cc1cc(C(O)(C(F)(F)F)C(F)(F)F)ccc1-c1sc(C(=O)NCC(C)(C)O)nc1C(=O)N1CCCC[C@@H]1C [Example 21/2, (S)-5-(4-(1,1,1,3,3,3-Hexafluoro-2-hydroxypropan-2-yl)-2-methylphenyl)-N-(2-hydroxy-2-methylpropyl)-4-(2-methylpiperidine-1-carbonyl)thiazole-2-carboxamide] |  |  | 0.21 nM | RORγt (FL) Reporter Assay B or C, % inhibition (full-length human RORγt [3]; * 3 μM compound concentration): 101* %; IC50 (full-length human RORγt [3]): 3.9 nM
6 | C[C@H]1CCCN1C(=O)c1nc(C(=O)NCC(C)(C)O)sc1-c1ccc(C(O)(C(F)(F)F)C(F)(F)F)c(Cl)c1Cl [Example 2/8, (S)-5-(2,3-Dichloro-4-(1,1,1,3,3,3-hexafluoro-2-hydroxypropan-2-yl)phenyl)-N-(2-hydroxy-2-methylpropyl)-4-(2-methylpyrrolidine-1-carbonyl)thiazole-2-carboxamide] | 103** % |  |  | IC50 [4]: 17 nM; RORγt (FL) Reporter Assay B or C, % inhibition (full-length human RORγt [3]; ** 2 μM compound concentration): 108** %
7 | CC(C)(O)CNC(=O)c1nc(C(=O)N2CCC(F)CC2)c(-c2ccc(C(O)(C(F)(F)F)C(F)(F)F)c(Cl)c2Cl)s1 [Example 2/10, 5-(2,3-Dichloro-4-(1,1,1,3,3,3-hexafluoro-2-hydroxypropan-2-yl)phenyl)-4-(4-fluoropiperidine-1-carbonyl)-N-(2-hydroxy-2-methylpropyl)thiazole-2-carboxamide] | 105** % | 25 nM | 13 nM | 
8 | C[C@@H]1CCCN1C(=O)c1nc(C(=O)NCC(C)(C)O)sc1-c1ccc(C(O)(C(F)(F)F)C(F)(F)F)c(Cl)c1Cl [Example 2/16, (R)-5-(2,3-dichloro-4-(1,1,1,3,3,3-hexafluoro-2-hydroxypropan-2-yl)phenyl)-N-(2-hydroxy-2-methylpropyl)-4-(2-methylpyrrolidine-1-carbonyl)thiazole-2-carboxamide] | 86** % |  |  | 
9 | C[C@H]1CC(F)(F)CN1C(=O)c1nc(C(=O)N2C[C@H](O)C[C@H](O)C2)sc1-c1ccc(C(O)(C(F)(F)F)C(F)(F)F)cc1C(F)(F)F [Example 9/1, ((S)-4,4-Difluoro-2-methylpyrrolidin-1-yl)(2-((3R,5S)-3,5-dihydroxypiperidine-1-carbonyl)-5-(4-(1,1,1,3,3,3-hexafluoro-2-hydroxypropan-2-yl)-2-(trifluoromethyl)phenyl)thiazol-4-yl)methanone] |  |  |  | IC50 [4]: 13 nM
10 | CCN(CC)C(=O)c1nc(C(=O)N2C[C@H](O)C[C@H](O)C2)sc1-c1ccc(C(O)(C(F)(F)F)C(F)(F)F)c(Cl)c1Cl [Example 3/4] | 100** % | 14 nM | 10 nM | 
11 | C[C@H]1CC(F)(F)CN1C(=O)c1nc(C(=O)NCC(C)(C)O)sc1-c1ccc(C(O)(C(F)(F)F)C(F)(F)F)c(Cl)c1Cl [Example 2/2, (S)-5-(2,3-Dichloro-4-(1,1,1,3,3,3-hexafluoro-2-hydroxypropan-2-yl)phenyl)-4-(4,4-difluoro-2-methylpyrrolidine-1-carbonyl)-N-(2-hydroxy-2-methylpropyl)thiazole-2-carboxamide] |  | 10 nM | 0.22 nM | RORγt (FL) Reporter Assay A, % inhibition (full-length human RORγt [1]; [5]): 101*** %
12 | CCN(C(=O)c1nc(C(=O)NCC(C)(C)O)sc1-c1ccc(C(O)(C(F)(F)F)C(F)(F)F)c(Cl)c1Cl)C1CCC1 [Example 2/15, N^4—Cyclobutyl-5-(2,3-dichloro-4-(1,1,1,3,3,3-hexafluoro-2-hydroxypropan-2-yl)phenyl)-N^4-ethyl-N2-(2-hydroxy-2-methylpropyl)thiazole-2,4-dicarboxamide] |  | 5 nM | 0.18 nM | RORγt (FL) Reporter Assay A, % inhibition (full-length human RORγt [1]; [5]): 106*** %
13 | Cc1cc(C(O)(C(F)(F)F)C(F)(F)F)ccc1-c1sc(C(=O)NCC(C)(C)O)nc1C(=O)N1CCC[C@@H]1C [Example 19, (S)-5-(4-(1,1,1,3,3,3-Hexafluoro-2-hydroxypropan-2-yl)-2-methylphenyl)-N-(2-hydroxy-2-methylpropyl)-4-(2-methylpyrrolidine-1-carbonyl)thiazole-2-carboxamide] |  |  |  | IC50 ([4]; IL-17 in supernatant, 3 days culture): 55 nM
14 | CN(C(=O)c1nc(C(=O)NCC(C)(C)O)sc1-c1ccc(C(O)(C(F)(F)F)C(F)(F)F)c(Cl)c1Cl)C1CCC1 [Example 2/13, N^4—Cyclobutyl-5-(2,3-dichloro-4-(1,1,1,3,3,3-hexafluoro-2-hydroxypropan-2-yl)phenyl)-N^Z-(2-hydroxy-2-methylpropyl)-N^4-methylthiazole-2,4-dicarboxamide] |  | 10 nM | 0.43 nM | RORγt (FL) Reporter Assay A, % inhibition (full-length human RORγt [1]; [5]): 103*** %
